We go through 15 compounds from ChEMBL document CHEMBL1136670, “Synthesis of quinolinyl/isoquinolinyl[a]pyrrolo [3,4-c] carbazoles as cyclin D1/CDK4 inhibitors” (Bioorg Med Chem Lett, 2003).

Molecules are shown by their SMILES.

Assay [1] addresses Cyclin-dependent kinase 4/cyclin D1 (Homo sapiens, UniProt P11802). Description: Inhibitory activity against cyclin D1/ (cyclin dependent kinase) CDK4. The class given is protein-complex assay.
The subject of the next assay is NCI-H460. Put plainly: Inhibition of non-small cell lung carcinoma (NCI-460) cell proliferation. It is filed as functional, cell-based. As to conditions: Homo sapiens.
The next assay concerns HCT-116. Put plainly: Inhibition of human colon carcinoma (HCT116) cell proliferation. The class given is functional, cell-based.

Sequence of Cyclin-dependent kinase 4/cyclin D1 (P11802 whole entry): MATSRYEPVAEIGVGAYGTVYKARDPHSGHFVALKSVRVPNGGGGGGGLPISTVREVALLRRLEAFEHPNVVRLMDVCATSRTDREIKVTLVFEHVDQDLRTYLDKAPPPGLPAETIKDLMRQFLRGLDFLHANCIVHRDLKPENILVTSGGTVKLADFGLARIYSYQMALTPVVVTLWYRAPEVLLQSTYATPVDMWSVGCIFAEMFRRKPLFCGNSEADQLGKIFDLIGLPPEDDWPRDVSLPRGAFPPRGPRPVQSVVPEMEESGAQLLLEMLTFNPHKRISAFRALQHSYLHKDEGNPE
Sequence of Cyclin-dependent kinase 4/cyclin D1 (P24385 whole entry, further chain): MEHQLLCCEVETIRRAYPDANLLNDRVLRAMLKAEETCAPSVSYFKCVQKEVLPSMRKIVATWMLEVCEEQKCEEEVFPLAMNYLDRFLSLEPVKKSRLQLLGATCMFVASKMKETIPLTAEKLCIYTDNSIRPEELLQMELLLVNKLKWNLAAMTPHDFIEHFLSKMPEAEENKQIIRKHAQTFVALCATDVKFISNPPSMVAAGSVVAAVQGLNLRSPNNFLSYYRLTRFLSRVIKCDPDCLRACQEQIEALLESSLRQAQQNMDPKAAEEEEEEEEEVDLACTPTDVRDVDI

As for `O=C1NC(=O)c2c1c1c(ccc3cccnc31)c1[nH]c3ccccc3c21`, the results for the IC50 (in assay [1]; with NCI-H460; with HCT-116) were greater than 2 µM, 3.53 µM and 0.8 µM, respectively.
On to `CN(C)CCCn1c2ccccc2c2c3c(c4c5ccccc5cnc4c21)C(=O)NC3=O`, for which the IC50 in assay [1] was determined as 0.17 µM; in the assay on NCI-H460 it was 0.37 µM; with HCT-116, 0.31 µM.
Turning to `O=C1NC(=O)c2c1c1c3ccccc3cnc1c1c2c2ccccc2n1CCCCO`, in assay [1], the IC50 stood at 1.15 µM.
The same measure, in the same setting: the same measure for `O=C1NC(=O)c2c1c1cnc3ccccc3c1c1c2c2ccccc2n1CCCO`: 1.19 µM.
Turning to `O=C1NC(=O)c2c1c1c3ccccc3ncc1c1[nH]c3ccccc3c21`, the IC50 in assay [1] came out at 0.683 µM; in the assay with NCI-H460, 0.66 µM; in the assay with HCT-116, 0.39 µM.
Compound `O=C1NC(=O)c2c1c1c3ccccc3cnc1c1[nH]c3c(CCO)cccc3c21` yielded a half-maximal inhibitory concentration (IC50) in assay [1] greater than 2 µM.
In assay [1], `O=C1NC(=O)c2c1c1c3ccccc3cnc1c1[nH]c3ccccc3c21` returned a half-maximal inhibitory concentration (IC50) greater than 2 µM.
Take `O=C1NC(=O)c2c1c1c3ccccc3cnc1c1c2c2ccccc2n1CCCO`: the IC50 in assay [1] was greater than 2 µM; in the assay with NCI-H460, 0.41 µM; in the assay on HCT-116, 0.16 µM.
Turning to `COc1ccc2c(c1)[nH]c1c3cnc4ccccc4c3c3c(c21)C(=O)NC3=O`, the half-maximal inhibitory concentration (IC50) in assay [1] stood at 0.21 µM; in the assay on NCI-H460, 0.39 µM.
In the case of `O=C1NC(=O)c2c1c1c3ccncc3ccc1c1[nH]c3ccccc3c21`, the values for the concentration for half-maximal inhibition (IC50) (in assay [1]; in the assay on NCI-H460; in the assay with HCT-116) were 0.069 µM, 0.074 µM and 0.13 µM, respectively.
For the compound `O=C1NC(=O)c2c1c1nc3ccccc3cc1c1[nH]c3ccccc3c21`, the IC50 is greater than 10 µM in assay [1], 4.04 µM in the assay with NCI-H460 and 5.51 µM in the assay on HCT-116.
Regarding `O=C1NC(=O)c2c1c1c3ccccc3ncc1c1[nH]c3cc(Cl)ccc3c21`, the half-inhibitory concentration (IC50) is greater than 2 µM in assay [1], 0.45 µM in the assay with NCI-H460 and 0.65 µM in the assay on HCT-116.
In assay [1], `CN(C)CCCCn1c2ccccc2c2c3c(c4c5ccccc5cnc4c21)C(=O)NC3=O` returned an IC50 of 1.14 µM.
As for `O=C1NC(=O)c2c1c1c3cccnc3ccc1c1[nH]c3ccccc3c21`, the IC50 was greater than 0.2 µM in assay [1], 1.91 µM with NCI-H460 and 0.43 µM with HCT-116.
Consider `O=C1NC(=O)c2c1c1cnc3ccccc3c1c1[nH]c3ccccc3c21`, for which the results for the IC50 (in assay [1]; in the assay on NCI-H460; with HCT-116) were greater than 10 µM, 0.93 µM and 1.95 µM, respectively.
